Data reported in ChEMBL document CHEMBL6153104, “Discovery of the first potent ROR1 degrader for the treatment of non-small cell lung cancer” (Eur J Med Chem, 2025).
One block for each compound: values may come before it. The source made the active and inactive calls. The rule behind the calls is not given here.

What was measured:
[1] = test system: NCI-H1975; assay: Antiproliferative activity against human NCI-H1975 cells assessed as inhibition of cell proliferation incubated for 72 hrs by CCK8 assay; type: functional, cell-based; conditions: NCI-H1975, 72 h
[2] = test system: NCI-H23; assay: Induction of apoptosis in human NCI-H23 cells assessed as early apoptotic cells at 0.3 uM incubated for 24 hrs by […]/Annexin V-PE staining based flow cytometric analysis (reference value: 5.1 %); type: functional
[3] = test system: NCI-H23; assay: Induction of apoptosis in human NCI-H23 cells assessed as necrotic cells at 0.1 uM incubated for 24 hrs by […]/Annexin V-PE staining based flow cytometric analysis (reference value: 0.5 %); type: functional
[4] = test system: NCI-H23; assay: Induction of apoptosis in human NCI-H23 cells assessed as necrotic cells at 0.3 uM incubated for 24 hrs by […]/Annexin V-PE staining based flow cytometric analysis (reference value: 0.5 %); type: functional
[5] = test system: NCI-H23; assay: Induction of apoptosis in human NCI-H23 cells assessed as early apoptotic cells at 0.1 uM incubated for 24 hrs by […]/Annexin V-PE staining based flow cytometric analysis (reference value: 5.1 %); type: functional
[6] = test system: NCI-H1299; assay: Antiproliferative activity against human NCI-H1299 cells assessed as inhibition of cell proliferation incubated for 72 hrs by CCK8 assay; type: functional, cell-based; conditions: NCI-H1299, 72 h
[7] = test system: NCI-H23; assay: Induction of apoptosis in human NCI-H23 cells assessed as viable cells at 0.1 uM incubated for 24 hrs by […]/Annexin V-PE staining based flow cytometric analysis (reference value: 92.7 %); type: functional; conditions: read-out: Activity
[8] = test system: NCI-H23; assay: Induction of apoptosis in human NCI-H23 cells assessed as late apoptotic cells at 0.3 uM incubated for 24 hrs by […]/Annexin V-PE staining based flow cytometric analysis (reference value: 1.6 %); type: functional
[9] = test system: NCI-H23; assay: Antiproliferative activity against human NCI-H23 cells assessed as inhibition of cell proliferation incubated for 72 hrs by CCK8 assay; type: functional, cell-based; conditions: NCI-H23, 72 h
[10] = test system: NCI-H23; assay: Induction of apoptosis in human NCI-H23 cells assessed as PARP1 cleavage at 0.1 to 1 uM measured after 10 hrs by Western blot analysis; type: functional, cell-based; conditions: dose 0.1-1 µM
[11] = test system: NCI-H23; assay: Induction of apoptosis in human NCI-H23 cells assessed as viable cells at 0.3 uM incubated for 24 hrs by […]/Annexin V-PE staining based flow cytometric analysis (reference value: 92.7 %); type: functional; conditions: read-out: Activity
[12] = target: Inactive tyrosine-protein kinase transmembrane receptor ROR1 (Homo sapiens, UniProt Q01973); assay: Binding affinity to RED-NHS-labeled human ROR1 kinase domain (460 to 752 residues) extracted from Sf9 cells assessed as dissociation constant incubated for 30 mins by MST analysis; type: cell-free
[13] = test system: NCI-H23; assay: Induction of apoptosis in human NCI-H23 cells assessed as late apoptotic cells at 0.1 uM incubated for 24 hrs by […]/Annexin V-PE staining based flow cytometric analysis (reference value: 1.6 %); type: functional
[14] = test system: NCI-H23; assay: Induction of apoptosis in human NCI-H23 cells assessed as early apoptotic cells at 1 uM incubated for 24 hrs by […]/Annexin V-PE staining based flow cytometric analysis (reference value: 5.1 %); type: functional
[15] = test system: NCI-H23; assay: Induction of apoptosis in human NCI-H23 cells assessed as viable cells at 1 uM incubated for 24 hrs by […]/Annexin V-PE staining based flow cytometric analysis (reference value: 92.7 %); type: functional; conditions: read-out: Activity
[16] = test system: NCI-H460; assay: Antiproliferative activity against human NCI-H460 cells assessed as inhibition of cell proliferation incubated for 72 hrs by CCK8 assay; type: functional, cell-based; conditions: NCI-H460, 72 h
[17] = test system: NCI-H23; assay: Induction of apoptosis in human NCI-H23 cells assessed as PARP1 cleavage at 1 uM measured after 10 hrs by Western blot analysis; type: functional
[18] = test system: NCI-H23; assay: Induction of apoptosis in human NCI-H23 cells assessed as late apoptotic cells at 1 uM incubated for 24 hrs by […]/Annexin V-PE staining based flow cytometric analysis (reference value: 1.6 %); type: functional
[19] = test system: NCI-H23; assay: Induction of apoptosis in human NCI-H23 cells assessed as necrotic cells at 1 uM incubated for 24 hrs by […]/Annexin V-PE staining based flow cytometric analysis (reference value: 0.5 %); type: functional
[20] = target: T1, von Hippel-Lindau disease tumor suppressor/Inactive tyrosine-protein kinase transmembrane receptor ROR1 (Homo sapiens, UniProt P40337+Q01973); assay: PROTAC activity at VHL/ROR1 in human NCI-H23 cells assessed as induction of ROR1 degradation incubated for 12 hrs by Western blot analysis; type: cell-based
[21] = target: T2, von Hippel-Lindau disease tumor suppressor/Cyclin-dependent kinase-like 2 (Homo sapiens) (UniProt Q92772+P40337); assay: PROTAC activity at VHL/CDKL2 in human NCI-H23 cells assessed as induction of CDKL2 degradation by Western blot analysis; type: cell-based
[22] = target: T2, von Hippel-Lindau disease tumor suppressor/Cyclin-dependent kinase-like 2 (Homo sapiens); assay: PROTAC activity at VHL/CDKL2 in human NCI-H1975 cells assessed as induction of CDKL2 degradation by Western blot analysis; type: cell-based
[23] = target: T1, von Hippel-Lindau disease tumor suppressor/Inactive tyrosine-protein kinase transmembrane receptor ROR1; assay: PROTAC activity at VHL/ROR1 in human NCI-H23 cells assessed as induction of ROR1 degradation at 1 uM incubated for 24 hrs by Western blot analysis relative to control; type: cell-based
Target sequence in this assay (P40337 whole entry): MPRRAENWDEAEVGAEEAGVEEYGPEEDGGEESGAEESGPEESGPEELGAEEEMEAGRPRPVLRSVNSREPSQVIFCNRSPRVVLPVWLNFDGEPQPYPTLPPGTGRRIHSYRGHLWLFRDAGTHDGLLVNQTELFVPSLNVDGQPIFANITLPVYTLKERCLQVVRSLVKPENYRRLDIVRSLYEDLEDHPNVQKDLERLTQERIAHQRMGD
Target sequence in this assay (Q01973 30-937 partner limits assumed): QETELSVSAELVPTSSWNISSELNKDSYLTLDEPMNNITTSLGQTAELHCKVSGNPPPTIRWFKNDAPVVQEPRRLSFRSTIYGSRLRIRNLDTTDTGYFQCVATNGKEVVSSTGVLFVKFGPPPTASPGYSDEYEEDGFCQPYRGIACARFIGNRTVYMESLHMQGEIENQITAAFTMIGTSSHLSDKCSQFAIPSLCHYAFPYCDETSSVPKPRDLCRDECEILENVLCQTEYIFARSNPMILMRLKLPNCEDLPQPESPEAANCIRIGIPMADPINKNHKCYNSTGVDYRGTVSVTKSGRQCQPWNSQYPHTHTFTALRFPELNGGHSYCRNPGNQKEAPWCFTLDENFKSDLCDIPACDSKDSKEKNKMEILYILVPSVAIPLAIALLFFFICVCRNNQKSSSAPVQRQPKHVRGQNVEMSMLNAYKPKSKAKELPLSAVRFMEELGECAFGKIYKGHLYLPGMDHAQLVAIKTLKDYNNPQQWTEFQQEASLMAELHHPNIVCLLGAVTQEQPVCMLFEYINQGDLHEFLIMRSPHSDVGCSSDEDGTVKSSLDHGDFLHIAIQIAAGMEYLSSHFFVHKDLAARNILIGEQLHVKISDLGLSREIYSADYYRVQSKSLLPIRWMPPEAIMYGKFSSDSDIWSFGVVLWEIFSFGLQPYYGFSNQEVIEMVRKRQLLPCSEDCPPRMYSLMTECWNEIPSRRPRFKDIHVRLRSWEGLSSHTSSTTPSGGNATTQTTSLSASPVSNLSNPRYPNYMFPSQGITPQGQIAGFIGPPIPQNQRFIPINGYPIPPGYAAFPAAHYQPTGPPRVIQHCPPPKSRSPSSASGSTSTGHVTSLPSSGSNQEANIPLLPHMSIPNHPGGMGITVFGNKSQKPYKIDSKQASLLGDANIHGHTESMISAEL

[24] = target: T1, von Hippel-Lindau disease tumor suppressor/Inactive tyrosine-protein kinase transmembrane receptor ROR1; assay: PROTAC activity at VHL/ROR1 in human NCI-H23 cells assessed as induction of ROR1 degradation at 0.7 uM preincubated with PS-341 for 2 hrs followed by compound addition and measured after 24 hrs by Western blot analysis; type: cell-based
Target sequence in this assay (P40337 whole entry): as the sequence (P40337 whole entry) above
Target sequence in this assay (Q01973 30-937 partner limits assumed): as the sequence (Q01973 30-937 partner limits assumed) above

[25] = target: T1, von Hippel-Lindau disease tumor suppressor/Inactive tyrosine-protein kinase transmembrane receptor ROR1; assay: PROTAC activity at VHL/ROR1 in human NCI-H23 cells assessed as induction of ROR1 degradation at 0.1 uM incubated for 24 hrs by Western blot analysis relative to control; type: cell-based
Target sequence in this assay (P40337 whole entry): as the sequence (P40337 whole entry) above
Target sequence in this assay (Q01973 30-937 partner limits assumed): as the sequence (Q01973 30-937 partner limits assumed) above

[26] = test system: NCI-H23; assay: Induction of apoptosis in human NCI-H23 cells assessed as PARP1 cleavage at 0.1 uM measured after 10 hrs by Western blot analysis; type: functional, cell-based
[27] = target: T3, von Hippel-Lindau disease tumor suppressor/Tyrosine-protein kinase transmembrane receptor ROR2 (Homo sapiens) (UniProt Q01974+P40337); assay: PROTAC activity at VHL/ROR2 in human NCI-H1975 cells assessed as induction of ROR2 degradation at 1 uM by Western blot analysis; type: cell-based
[28] = target: T1, von Hippel-Lindau disease tumor suppressor/Inactive tyrosine-protein kinase transmembrane receptor ROR1; assay: PROTAC activity at VHL/ROR1 in human NCI-H23 cells assessed as induction of ROR1 degradation at 0.5 uM preincubated with bafilomycin A1 for 2 hrs followed by compound addition and measured after 24 hrs by Western blot analysis; type: cell-based
Target sequence in this assay (P40337 whole entry): as the sequence (P40337 whole entry) above
Target sequence in this assay (Q01973 30-937 partner limits assumed): as the sequence (Q01973 30-937 partner limits assumed) above

[29] = target: T1, von Hippel-Lindau disease tumor suppressor/Inactive tyrosine-protein kinase transmembrane receptor ROR1; assay: PROTAC activity at VHL/ROR1 in human NCI-H460 cells assessed as induction of ROR1 degradation incubated for 12 hrs by Western blot analysis; type: cell-based
Target sequence in this assay (P40337 whole entry): as the sequence (P40337 whole entry) above
Target sequence in this assay (Q01973 whole entry): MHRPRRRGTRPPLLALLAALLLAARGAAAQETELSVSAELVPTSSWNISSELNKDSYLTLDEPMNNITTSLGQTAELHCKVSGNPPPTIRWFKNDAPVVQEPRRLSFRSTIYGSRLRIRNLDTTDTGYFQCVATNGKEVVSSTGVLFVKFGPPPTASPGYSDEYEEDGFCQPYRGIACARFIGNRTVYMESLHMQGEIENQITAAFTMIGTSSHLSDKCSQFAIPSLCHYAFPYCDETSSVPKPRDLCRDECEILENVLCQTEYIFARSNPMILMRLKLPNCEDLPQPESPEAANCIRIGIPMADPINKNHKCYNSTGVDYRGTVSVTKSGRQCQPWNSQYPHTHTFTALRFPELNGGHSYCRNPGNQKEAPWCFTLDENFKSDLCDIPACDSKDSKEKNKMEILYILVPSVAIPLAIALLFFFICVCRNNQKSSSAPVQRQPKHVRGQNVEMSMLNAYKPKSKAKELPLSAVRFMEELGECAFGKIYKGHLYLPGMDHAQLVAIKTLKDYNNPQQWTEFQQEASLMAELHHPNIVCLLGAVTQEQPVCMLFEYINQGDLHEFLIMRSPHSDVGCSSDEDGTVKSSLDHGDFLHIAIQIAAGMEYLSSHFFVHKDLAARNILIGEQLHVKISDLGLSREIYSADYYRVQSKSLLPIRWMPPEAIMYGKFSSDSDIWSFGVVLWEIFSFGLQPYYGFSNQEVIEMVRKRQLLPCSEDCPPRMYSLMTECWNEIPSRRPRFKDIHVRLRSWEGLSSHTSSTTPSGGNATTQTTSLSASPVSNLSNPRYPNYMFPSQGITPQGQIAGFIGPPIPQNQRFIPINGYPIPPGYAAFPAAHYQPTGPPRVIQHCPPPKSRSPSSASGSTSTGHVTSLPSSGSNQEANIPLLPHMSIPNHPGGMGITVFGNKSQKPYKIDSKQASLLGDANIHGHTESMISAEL

[30] = target: T1, von Hippel-Lindau disease tumor suppressor/Inactive tyrosine-protein kinase transmembrane receptor ROR1; assay: PROTAC activity at VHL/ROR1 in human NCI-H23 cells assessed as induction of ROR1 degradation by measuring maximal efficacy at 10 to 1000 nM incubated for 12 hrs by Western blot analysis relative to control; type: cell-based; conditions: dose 10-1000 nM
Target sequence in this assay (P40337 whole entry): as the sequence (P40337 whole entry) above
Target sequence in this assay (Q01973 30-937 partner limits assumed): as the sequence (Q01973 30-937 partner limits assumed) above

[31] = target: T4, von Hippel-Lindau disease tumor suppressor/Cyclin-dependent kinase 4 (Homo sapiens) (UniProt P11802+P40337); assay: PROTAC activity at VHL/CDK4 in human NCI-H23 cells assessed as induction of CDK4 degradation by Western blot analysis; type: cell-based
[32] = target: T1, von Hippel-Lindau disease tumor suppressor/Inactive tyrosine-protein kinase transmembrane receptor ROR1; assay: PROTAC activity at VHL/ROR1 in human NCI-H1299 cells assessed as induction of ROR1 degradation incubated for 12 hrs by Western blot analysis; type: cell-based
Target sequence in this assay (P40337 whole entry): as the sequence (P40337 whole entry) above
Target sequence in this assay (Q01973 whole entry): as the sequence (Q01973 whole entry) above

[33] = target: T4, von Hippel-Lindau disease tumor suppressor/Cyclin-dependent kinase 4 (Homo sapiens); assay: PROTAC activity at VHL/CDK4 in human NCI-H1975 cells assessed as induction of CDK4 degradation by Western blot analysis; type: cell-based
[34] = target: T1, von Hippel-Lindau disease tumor suppressor/Inactive tyrosine-protein kinase transmembrane receptor ROR1; assay: PROTAC activity at VHL/ROR1 in human NCI-H23 cells assessed as induction of ROR1 degradation at 1 uM by Western blot analysis; type: cell-based; conditions: time 2-24 hrs
Target sequence in this assay (P40337 whole entry): as the sequence (P40337 whole entry) above
Target sequence in this assay (Q01973 30-937 partner limits assumed): as the sequence (Q01973 30-937 partner limits assumed) above

[35] = target: T1, von Hippel-Lindau disease tumor suppressor/Inactive tyrosine-protein kinase transmembrane receptor ROR1; assay: PROTAC activity at VHL/ROR1 in human NCI-H1975 cells assessed as induction of ROR1 degradation incubated for 12 hrs by Western blot analysis; type: cell-based
Target sequence in this assay (P40337 whole entry): as the sequence (P40337 whole entry) above
Target sequence in this assay (Q01973 whole entry): as the sequence (Q01973 whole entry) above

[36] = target: T5, von Hippel-Lindau disease tumor suppressor/Cyclin-dependent kinase 7 (Homo sapiens) (UniProt P50613+P40337); assay: PROTAC activity at VHL/CDK7 in human NCI-H23 cells assessed as induction of CDK7 degradation by Western blot analysis; type: cell-based
[37] = target: T1, von Hippel-Lindau disease tumor suppressor/Inactive tyrosine-protein kinase transmembrane receptor ROR1; assay: PROTAC activity at VHL/ROR1 in human NCI-H23 cells assessed as induction of ROR1 degradation at 1 uM incubated for 4 hrs by Western blot analysis; type: cell-based
[38] = target: T1, von Hippel-Lindau disease tumor suppressor/Inactive tyrosine-protein kinase transmembrane receptor ROR1; assay: PROTAC activity at VHL/ROR1 in human NCI-H23 cells assessed as induction of ROR1 degradation at 1 uM incubated for 24 hrs by Western blot analysis; type: cell-based
[39] = target: T5, von Hippel-Lindau disease tumor suppressor/Cyclin-dependent kinase 7 (Homo sapiens); assay: PROTAC activity at VHL/CDK7 in human NCI-H1975 cells assessed as induction of CDK7 degradation by Western blot analysis; type: cell-based
[40] = target: T1, von Hippel-Lindau disease tumor suppressor/Inactive tyrosine-protein kinase transmembrane receptor ROR1; assay: PROTAC activity at VHL/ROR1 in human NCI-H23 cells assessed as induction of ROR1 degradation preincubated with cycloheximide followed by compound addition and measured after 6 hrs by Western blot analysis; type: cell-based
[41] = target: T1, von Hippel-Lindau disease tumor suppressor/Inactive tyrosine-protein kinase transmembrane receptor ROR1; assay: PROTAC activity at VHL/ROR1 in human NCI-H23 cells assessed as induction of ROR1 degradation at 0.7 uM preincubated with TAK-243 for 2 hrs followed by compound addition and measured after 24 hrs by Western blot analysis; type: cell-based
[42] = target: T3, von Hippel-Lindau disease tumor suppressor/Tyrosine-protein kinase transmembrane receptor ROR2 (Homo sapiens); assay: PROTAC activity at VHL/ROR2 in human NCI-H23 cells assessed as induction of ROR2 degradation by Western blot analysis; type: cell-based

T2 sequence (P40337 whole entry, looked up): as the sequence (P40337 whole entry) above
T2 sequence (Q92772 whole entry, looked up): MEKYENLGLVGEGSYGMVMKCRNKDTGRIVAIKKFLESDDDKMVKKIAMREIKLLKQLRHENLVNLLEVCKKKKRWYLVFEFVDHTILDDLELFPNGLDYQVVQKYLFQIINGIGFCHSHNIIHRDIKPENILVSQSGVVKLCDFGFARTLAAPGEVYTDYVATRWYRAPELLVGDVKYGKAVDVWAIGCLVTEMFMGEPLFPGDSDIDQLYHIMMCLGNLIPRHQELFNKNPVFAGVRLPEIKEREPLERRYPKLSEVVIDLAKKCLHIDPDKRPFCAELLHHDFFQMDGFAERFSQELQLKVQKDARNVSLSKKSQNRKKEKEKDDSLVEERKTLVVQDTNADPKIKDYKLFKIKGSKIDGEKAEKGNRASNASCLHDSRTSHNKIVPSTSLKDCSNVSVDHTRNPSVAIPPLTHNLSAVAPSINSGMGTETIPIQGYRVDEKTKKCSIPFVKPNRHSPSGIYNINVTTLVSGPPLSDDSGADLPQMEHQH
T5 sequence (P40337 whole entry, looked up): as the sequence (P40337 whole entry) above
T5 sequence (P50613 whole entry, looked up): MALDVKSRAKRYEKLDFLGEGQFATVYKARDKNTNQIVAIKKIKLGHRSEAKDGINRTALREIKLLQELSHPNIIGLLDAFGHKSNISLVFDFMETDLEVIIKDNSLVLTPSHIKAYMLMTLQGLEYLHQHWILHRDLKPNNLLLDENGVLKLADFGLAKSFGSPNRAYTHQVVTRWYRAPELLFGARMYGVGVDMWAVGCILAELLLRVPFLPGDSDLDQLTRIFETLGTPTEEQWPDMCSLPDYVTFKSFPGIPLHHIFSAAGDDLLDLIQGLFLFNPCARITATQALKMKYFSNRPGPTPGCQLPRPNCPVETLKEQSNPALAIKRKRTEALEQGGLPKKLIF
T4 sequence (P11802 2-303 limits assumed): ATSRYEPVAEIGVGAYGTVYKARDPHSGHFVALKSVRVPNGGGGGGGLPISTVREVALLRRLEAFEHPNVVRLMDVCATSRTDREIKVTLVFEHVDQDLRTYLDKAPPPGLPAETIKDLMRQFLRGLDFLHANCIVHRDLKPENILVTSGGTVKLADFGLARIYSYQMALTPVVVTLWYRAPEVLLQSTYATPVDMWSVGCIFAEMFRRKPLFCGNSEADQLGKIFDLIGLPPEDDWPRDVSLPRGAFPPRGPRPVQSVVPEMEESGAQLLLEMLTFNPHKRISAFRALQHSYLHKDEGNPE
T4 sequence (P40337 whole entry partner): as the sequence (P40337 whole entry) above

IC50 [1]: 371 nM
IC50 [6]: 5820 nM
IC50 [9]: 483 nM
Kd [12]: 42000 nM
IC50 [16]: 5210 nM
SMILES: CCOCCN1CCN(c2ccc(-c3nc4c(NC5CCN(CC)CC5)c(Br)cnc4[nH]3)cc2)CC1
Activity [2]: 4.3%
Activity [3]: 0.2%
Activity [4]: 0.2%
Activity [5]: 2.5%
viability at 0.1 µM [7]: 96.9%
Activity [8]: 1%
Activity [10]: Active; Less Potent Compared To Compound 11
viability at 0.3 µM [11]: 94.5%
Activity [13]: 0.5%
Activity [14]: 29.5%
viability at 1 µM [15]: 63.7%
Activity [17]: 100%
Activity [18]: 6.1%
Activity [19]: 0.7%

Activity [20]: Dose-dependent-effect
DC50 [20]: 40.9 nM
IC50 [1]: 63 nM
Activity [21]: inactive
Activity [22]: inactive
Activity [23]: 99.7%
IC50 [6]: 164 nM
Activity [24]: inactive
Activity [25]: 93%
IC50 [9]: 36 nM
Activity [27]: Active; Slight Degradation Observed
Activity [28]: Active
DC50 [29]: 69 nM
Emax [30]: 93.7%
Activity [31]: inactive
DC50 [32]: 83.3 nM
Activity [33]: inactive
IC50 [16]: 85 nM
Activity [34]: Time-dependent-effect
DC50 [35]: 42.1 nM
Activity [36]: inactive
Activity [37]: Active
Activity [38]: Active; Maximal Degradation Observed
Activity [39]: inactive
Activity [41]: inactive
Activity [42]: inactive
SMILES: CCN1CCC(Nc2c(Br)cnc3[nH]c(-c4ccc(N5CCN(C(=O)CCCCCCCCC(=O)N[C@H](C(=O)N6C[C@H](O)C[C@H]6C(=O)NCc6ccc(-c7scnc7C)cc6)C(C)(C)C)CC5)cc4)nc23)CC1
Activity [2]: 46.5%
Activity [3]: 0.3%
Activity [4]: 0.8%
Activity [5]: 29.9%
viability at 0.1 µM [7]: 63.2%
Activity [8]: 20.1%
Activity [26]: Active
viability at 0.3 µM [11]: 32.5%
Activity [13]: 6.5%
Activity [14]: 46.9%
viability at 1 µM [15]: 29.9%
Activity [40]: Active; Compound Reduction Ror1 Protein Via Protein Degradation Pathway
Activity [18]: 22.1%
Activity [19]: 1.4%
